Data published in US9567301B2, “Pyrrol-1-yl benzoic acid derivatives useful as myc inhibitors” (Whitehead Institute for Biomedical Research, priority 2012, dated 2017).
Where two headings read alike, the source gives them in different places.

Assays:
H2171 cells = test: Cell viability assay (ATPlite), H2171; assay type: cell-based, human; details: cell viability, three days, ATPlite, NA: inactive under assay conditions
In short: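 Cells seeded at 60,000 cells/mL and dosed immediately by pin transfer in 10-point quadruplicate dose response from DMSO stocks. After three days at 37 °C, viability was read by ATPlite luminescence after 15 min at room temperature.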

MM1S cells = test: Cell viability assay (ATPlite), MM1S; assay type: cell-based, human; details: cell viability, three days, ATPlite, NA: inactive under assay conditions
Protocol: (§1) This assay was used for the H2171 and MM1S cell data shown in Table 2, and for the Jurkat (an immortalized line of human T lymphocyte cells), Ly1 (OCI-Ly1 human non-Hodgkin lymphoma cell line), Ly4 (OCI-Ly4 human non-Hodgkin lymphoma cell line), H2172 (NCI-H2172 human non-small cell lung cancer cell line), and CA-46 (a human Burkitt's lymphoma cell line) cell data shown in Table 3 and FIG. 12. Cells were counted and adjusted to 60,000 cells/mL. Using a Biotek EL406, 50 μL of cells are media were distributed into 384 well white plates from Thermo. Immediately after plating, compound in DMSO was distributed to plates. For large plate sets, cells were returned to 37° C. incubator while not in use.
(§2) Compounds were added to plates using a 100 nL 384 well pin transfer manifold on a Janus workstation. Stocks were arrayed in 10 point quadruplicate dose response in DMSO stock in 384 well Greiner compound plates. After addition of compound, plates were incubated for three days in a 37° C. incubator.
(§3) Cell viability was read out using ATPlite from Perkin Elmer. Plates were removed from the incubator and brought to room temperature prior to use. Lyophilized powder was resuspended in lysis buffer and diluted 1:2 with DI water. 25 μL of this solution was added to each well using the Biotek liquid handler. Plates were sealed with adherent aluminum seals prior to vortexing and spinning down at 1000 g for 1 minute. Plates were incubated for 15 minutes at room temperature before signal was read on an Envision Plate Reader.

Jurkat cells = test: Cell viability assay (ATPlite), Jurkat; assay type: cell-based, human; details: class symbols, NA: not active under assay conditions
Protocol: as §1, §2, §3

c-Myc/Max/Ebox DNA = c-Myc/Max/Ebox DNA (Homo sapiens, UniProt P01106); test: c-Myc/Max/Ebox DNA AlphaScreen assay; assay type: binding; parameters: An exemplary assay uses full-length human c-Myc and Max proteins; his6 (cleaved yes); made in house
In short: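 Proximity read-out of Myc–Max–DNA complex formation in 50 mM HEPES pH 8.0 with 500 μM DTT. Compounds contact tag-free c-Myc (25 nM), Ebox oligo (10 nM) and acceptor beads first. His6-Max (1.25 nM) with donor beads follows, then 2 h incubation in low light with DMSO ≤2% v/v.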

MITF/MITF/Ebox DNA = target: T1, MITF/MITF/Ebox DNA (Homo sapiens, UniProt O75030); test: Gelshift assay, MITF/MITF/Ebox DNA complex formation; assay type: binding; details: relative to DMSO at 2.5 µM (FIG. 9)
T1 sequence (O75030 1-526): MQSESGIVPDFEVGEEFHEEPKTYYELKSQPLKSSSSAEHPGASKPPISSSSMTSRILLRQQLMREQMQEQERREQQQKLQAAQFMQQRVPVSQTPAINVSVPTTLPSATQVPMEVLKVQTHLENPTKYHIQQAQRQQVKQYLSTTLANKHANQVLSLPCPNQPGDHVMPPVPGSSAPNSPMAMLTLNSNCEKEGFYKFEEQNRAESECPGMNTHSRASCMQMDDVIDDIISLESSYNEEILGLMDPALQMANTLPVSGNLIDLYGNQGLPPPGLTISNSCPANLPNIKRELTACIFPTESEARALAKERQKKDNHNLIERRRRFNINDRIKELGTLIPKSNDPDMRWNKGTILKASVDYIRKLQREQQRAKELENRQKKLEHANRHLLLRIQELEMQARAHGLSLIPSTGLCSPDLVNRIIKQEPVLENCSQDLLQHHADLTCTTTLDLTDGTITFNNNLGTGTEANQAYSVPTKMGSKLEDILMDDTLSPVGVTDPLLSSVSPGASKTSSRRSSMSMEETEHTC
Protocol: Compounds tested at 2.5 μM for their inhibitory activity against c-Myc/Max/Ebox DNA, Max/Max/Ebox DNA and MITF/MITF/Ebox DNA complex formation using gelshift assays.
AlphaScreen hits can be validated using orthogonal biochemical assays such as a gelshift assay (also called an electrophoretic mobility shift assay) with purified components or cellular lysates. FIG. 5 (left) illustrates how the AlphaScreen hit 63 was validated using a gelshift assay with purified c-Myc, Max and Ebox DNA. […] Compounds and analogs were then examined for potency and selectivity against structurally similar transcription factor:DNA complexes, such as Max/Max/Ebox DNA and MITF/MITF/Ebox DNA. Data in FIG. 9 show how analogs can be tested for potency against structurally similar transcription factors and how medicinal chemistry optimization can drive potency and selectivity against different transcription factor:DNA complexes. […] The selectivity among structurally similar transcription factors can also provide insights into compound mechanism of action. […] Cellular assays can compliment the biochemical analyses to measure the cellular potency of compounds to induce cellular phenotypes expected as a result of loss of transcription factor function. This includes gene expression analysis, chromatin immunoprecipitation (ChIP) analysis, cellular proliferation analysis and cell state analysis. Gene expression analysis can be performed using qRT-PCR, Nanostring technology, microarray technology, or RNA-seq technology to study transcript changes following treatment with compound. ChIP analysis can be performed on the factor of interest to study if compound treatment alters its genomic occupancy. Cellular proliferation and cell state analysis can indicate if the compound alters cell cycle progression or cellular identity. Thus, the approach using biochemical and cellular assays with large chemical libraries or focused libraries of hits identified in high throughput screens can serve as a platform to develop inhibitors of transcription factor function.

[1] = c-Myc/Max/Ebox DNA AlphaScreen, NA: inactive under assay conditions, read-out: Biochemical IC50
[2] = class symbols, NA: not active under assay conditions, read-out: Myc/Max IC50

c-Myc/Max/Ebox DNA, sequence (P01106 16-454): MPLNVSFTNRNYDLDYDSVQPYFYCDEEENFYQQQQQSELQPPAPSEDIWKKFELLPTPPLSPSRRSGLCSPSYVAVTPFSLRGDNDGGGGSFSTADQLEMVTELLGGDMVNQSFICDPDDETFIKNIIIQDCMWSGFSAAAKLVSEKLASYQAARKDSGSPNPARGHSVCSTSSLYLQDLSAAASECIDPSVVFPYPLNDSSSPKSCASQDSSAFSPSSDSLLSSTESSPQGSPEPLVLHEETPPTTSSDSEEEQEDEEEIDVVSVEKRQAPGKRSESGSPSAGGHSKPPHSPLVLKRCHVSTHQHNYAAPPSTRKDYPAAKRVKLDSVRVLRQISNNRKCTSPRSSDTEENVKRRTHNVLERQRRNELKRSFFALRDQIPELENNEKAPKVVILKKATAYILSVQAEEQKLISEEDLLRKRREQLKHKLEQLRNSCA

SMILES	EC50 (Jurkat cells; Homo sapiens, Jurkat)	IC50 (c-Myc/Max/Ebox DNA; [2])	other results
Cc1ccc(C)n1-c1ccccc1-c1nnn[nH]1 [Compound 162]	≥ 100 µM	≥ 100 µM	EC50 (H2171 cells; Homo sapiens, NCI-H2171, 72 h): 24.2 µM; EC50 (MM1S cells; Homo sapiens, MM1.S, 72 h): 66 µM; IC50 (c-Myc/Max/Ebox DNA; [1]): 151 µM
Cc1ccc(C)n1-c1ccccc1C(=O)NS(=O)(=O)C1CC1 [Compound 190]	10 to 100 µM	≥ 100 µM	–
Cc1ccc(C)n1-c1cc(C(=O)N2C[C@H](c3ccccc3)[C@@H](O)C2)ccc1C(=O)O [Compound 217]	≥ 100 µM	10 to 100 µM	–
Cc1ccc(C)n1-c1cc(C(=O)N2CCN(C(=O)c3cncc(F)c3)CC2)ccc1C(=O)O [Compound 226]	≥ 100 µM	10 to 100 µM	–
Cc1ccc(C)n1-c1cc(-c2nnc(-c3ccc(OCc4ccccc4)c(OCc4ccccc4)c3OCc3ccccc3)o2)ccc1C(=O)O [Compound 219]	< 10 µM	1 to 10 µM	–
Cc1ccc(C)n1-c1cc(C(=O)N2CCCC(c3ccc(C(=O)O)cc3)C2)ccc1C(=O)O (centres unmarked) [Compound 209]	–	10 to 100 µM	EC50 (Jurkat cells): ≥ 100 µM
COC(=O)c1ccc(C(=O)NN)cc1-n1c(C)ccc1C [Compound 211]	≥ 100 µM	≥ 100 µM	–
Cc1ccc(C)n1-c1cc(C(=O)N/N=C/c2ccc(-c3nnn[nH]3)cc2)ccc1C(=O)O [Compound 92]	–	–	EC50 (MM1S cells; Homo sapiens, MM1.S, 72 h): 731 µM; MITF/MITF/Ebox DNA complex formation (MITF/MITF/Ebox DNA): most potent of the compounds tested; IC50 (c-Myc/Max/Ebox DNA; [1]): 1.66 µM
Cc1ccc(C)n1-c1cc(C(=O)N2CCCC(c3ccc(Cl)cc3)C2)ccc1C(=O)O (centres unmarked) [Compound 201]	10 to 100 µM	10 to 100 µM	–
Cc1ccc(C)n1-c1cc(C(=O)N2CCCC(c3ccccc3O)C2)ccc1C(=O)O (centres unmarked) [Compound 207]	≥ 100 µM	10 to 100 µM	–
Cc1ccc(C)n1-c1cc(C(=O)N2CCCC(c3ccccc3C(=O)O)C2)ccc1C(=O)O (centres unmarked) [Compound 203]	≥ 100 µM	< 1 µM	–
Cc1ccc(C)n1-c1cc(C(=O)N2CCN(C(=O)c3cccnc3)CC2)ccc1C(=O)O [Compound 216]	≥ 100 µM	10 to 100 µM	–
Cc1ccc(C)n1-c1cc(-c2nnc(-c3ccc(O)c(O)c3O)o2)ccc1C(=O)O [Compound 224]	< 10 µM	< 1 µM	–
O=C(O)c1ccccc1-n1c(Br)ccc1C(F)(F)F [Compound 197]	≥ 100 µM	10 to 100 µM	–
Cc1ccc(C)n1-c1cc(C(=O)N2CCC=C(c3cccc(C(=O)O)c3)C2)ccc1C(=O)O [Compound 204]	10 to 100 µM	10 to 100 µM	–
Cc1ccc(C)n1-c1ncccc1C(=O)NS(C)(=O)=O [Compound 187]	≥ 100 µM	≥ 100 µM	–
Cc1ccc(C)n1-c1ccccc1C(=O)NS(=O)(=O)c1ccccc1 [Compound 191]	10 to 100 µM	≥ 100 µM	–

The next lines start with results.

EC50 (Jurkat cells; Homo sapiens, Jurkat)	IC50 (c-Myc/Max/Ebox DNA; [2])	SMILES	other results
≥ 100 µM	10 to 100 µM	Cc1ccc(C)n1-c1ccccc1C(=O)O [Compound 1]	EC50 (H2171 cells): 93.5 µM; EC50 (MM1S cells): 132 µM
≥ 100 µM	< 1 µM	Cc1ccc(C)n1-c1cc(C(=O)N2CCN(c3cccc(C(=O)O)c3)CC2)ccc1C(=O)O [Compound 195]	–
10 to 100 µM	1 to 10 µM	Cc1ccc(C)n1-c1cc(C(=O)N2CCCC(c3ccc(CC(=O)O)cc3)C2)ccc1C(=O)O (centres unmarked) [Compound 208]	–
≥ 100 µM	1 to 10 µM	Cc1ccc(C)n1-c1cc(C(=O)N2CCCC(c3ccc(C(=O)NS(C)(=O)=O)cc3)C2)ccc1C(=O)O (centres unmarked) [Compound 205]	–
10 to 100 µM	1 to 10 µM	COc1cccc(C2CCCN(C(=O)c3ccc(C(=O)O)c(-n4c(C)ccc4C)c3)C2)c1 (centres unmarked) [Compound 189]	–
10 to 100 µM	1 to 10 µM	Cc1ccc(C)n1-c1cc(C(=O)N2CCN(c3ccc(C(=O)O)cc3)CC2)ccc1C(=O)O [Compound 199]	–
10 to 100 µM	≥ 100 µM	Cc1ccc(C(F)(F)F)n1-c1ccccc1C(=O)O [Compound 192]	–
≥ 100 µM	10 to 100 µM	Cc1cnc(C(=O)N2CCN(C(=O)c3ccc(C(=O)O)c(-n4c(C)ccc4C)c3)CC2)cn1 [Compound 215]	–
≥ 100 µM	10 to 100 µM	Cc1ccc(C)n1-c1cc(C(=O)N2CCCC(c3ccc(C(=O)O)cc3)C2)ccc1C(=O)NS(C)(=O)=O (centres unmarked) [Compound 221]	–
≥ 100 µM	10 to 100 µM	COc1ccc(C2CCCN(C(=O)c3ccc(C(=O)O)c(-n4c(C)ccc4C)c3)C2)cc1 (centres unmarked) [Compound 185]	–
≥ 100 µM	1 to 10 µM	Cc1ccc(C)n1-c1cc(C(=O)N2CCCC(c3cccc(C(=O)O)c3)C2)ccc1C(=O)O (centres unmarked) [Compound 169]	–
≥ 100 µM	< 1 µM	Cc1ccc(C)n1-c1cc(CNCc2ccc(C(=O)O)cc2)ccc1C(=O)O [Compound 193]	–
10 to 100 µM	10 to 100 µM	COc1ccc(C(=O)N2CCN(C(=O)c3ccc(C(=O)O)c(-n4c(C)ccc4C)c3)CC2)cc1 [Compound 218]	–
≥ 100 µM	1 to 10 µM	Cc1ncc(CO)c(/C=N/NC(=O)c2ccc(C(=O)O)c(-n3c(C)ccc3C)c2)c1O [Compound 80]	EC50 (H2171 cells; Homo sapiens, NCI-H2171, 72 h): 400 µM
≥ 100 µM	10 to 100 µM	Cc1ccc(C)n1-c1ccccc1C(=O)NS(C)(=O)=O [Compound 180]	–
10 to 100 µM	≥ 100 µM	COc1cccc([C@H]2CN(C(=O)c3ccc(C(=O)O)c(-n4c(C)ccc4C)c3)C[C@@H]2O)c1 [Compound 225]	–
≥ 100 µM	1 to 10 µM	Cc1ccc(C)n1-c1cc(C(=O)N2CCN(c3cccc(O)c3)CC2)ccc1C(=O)O [Compound 182]	–
10 to 100 µM	10 to 100 µM	Cc1ccc(C)n1-c1cc(-c2nnc(-c3ccc(C(=O)O)cc3)o2)ccc1C(=O)O [Compound 206]	–
≥ 100 µM	10 to 100 µM	COc1cccc(C(=O)N2CCN(C(=O)c3ccc(C(=O)O)c(-n4c(C)ccc4C)c3)CC2)c1 [Compound 220]	–
10 to 100 µM	≥ 100 µM	Cc1ccccc1C1CCCN(C(=O)c2ccc(C(=O)O)c(-n3c(C)ccc3C)c2)C1 (centres unmarked) [Compound 200]	–
≥ 100 µM	1 to 10 µM	Cc1ccc(C)n1-c1cc(CNCc2cccc(C(=O)O)c2)ccc1C(=O)O [Compound 196]	–
